Measurements published in US20200138827A1, “SMALL MOLECULE MODULATORS OF HUMAN STING” (Curadev Pharma Limited, priority 2017, published 2020).
Read-outs that look alike come from different tables or passages of the source.

What was measured:
WT/R232 STING protein = biological target: T1, WT/R232 STING protein (Homo sapiens, UniProt Q86WV6, H232R); assay: Luciferase reporter assay in HEK293T-hSTING-Luciferase cells, WT/R232; format: cell-based; conditions: 20 hr stimulation, read-out: R232 Activity (EC50 range)
T1 construct: host or cells: HEK293T
T1 sequence (Q86WV6 whole entry H232R): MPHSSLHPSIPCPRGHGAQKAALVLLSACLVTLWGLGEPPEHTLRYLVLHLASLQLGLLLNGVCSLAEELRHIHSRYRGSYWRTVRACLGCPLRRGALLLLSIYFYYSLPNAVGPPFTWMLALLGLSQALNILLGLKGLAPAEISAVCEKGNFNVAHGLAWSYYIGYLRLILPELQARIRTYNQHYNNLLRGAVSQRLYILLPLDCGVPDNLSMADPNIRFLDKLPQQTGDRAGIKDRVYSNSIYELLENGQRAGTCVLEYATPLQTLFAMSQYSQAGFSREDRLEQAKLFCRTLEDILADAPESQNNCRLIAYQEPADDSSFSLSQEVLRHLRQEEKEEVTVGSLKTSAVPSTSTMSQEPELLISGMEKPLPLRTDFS
Summary of the method: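 Clonal HEK293T cells stably expressing human STING R232 plus an ISRE/ISG54-driven luciferase reporter, 5×10^5 per well, stimulated with compounds for 20 h. Secreted luciferase in supernatant measured by luminescence; […].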

hSTING(H232) = biological target: T2, hSTING(H232) (Homo sapiens, UniProt Q86WV6); assay: Luciferase reporter assay in HEK293T-hSTING-Luciferase cells, H232 polymorph; format: cell-based; conditions: 20 hr stimulation, read-out: H232 activity (EC50 range)
T2 construct: host or cells: HEK293T
T2 sequence (Q86WV6 whole entry): as the sequence (Q86WV6 whole entry H232R) above, with R232H counted along it
Summary of the method: (§1)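 HEK293T clones stably expressed the given human STING variant plus luciferase under an ISRE/ISG54 IRF-inducible promoter. 5×10^5 cells were stimulated with compound for 20 hr, and secreted luciferase in the supernatant was measured by Quanti-Luc luminescence.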

hSTING(HAQ) = biological target: T3, hSTING(HAQ) (Homo sapiens, UniProt Q86WV6, G230A/H232R/R293Q/R71H); assay: Luciferase reporter assay in HEK293T-hSTING-Luciferase cells, HAQ polymorph; format: cell-based; conditions: 20 hr stimulation, read-out: HAQ activity (EC50 range)
T3 construct: host or cells: HEK293T
T3 sequence (Q86WV6 whole entry R71H/G230A/H232R/R293Q): as the sequence (Q86WV6 whole entry H232R) above, with R71H, G230A, R293Q counted along it
Summary of the method: as §1

IRF pathway = assay: Reporter gene expression assay in THP1-Dual cells, IRF axis (secreted Lucia luciferase); format: cell-based, human; conditions: read-out: THP-IRF activity (EC50 range)
Summary of the method: (§2)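 THP-1-derived cells carrying inducible NF-κB-SEAP and IRF-Lucia reporters, seeded at 5×10^5 and stimulated with compounds. After […], supernatant SEAP read with QUANTI-Blue and Lucia luciferase with QUANTI-Luc.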

NF-κB pathway = assay: Reporter gene expression assay in THP1-Dual cells, NFkB axis (secreted SEAP); format: cell-based, human; conditions: read-out: THP-NFKB activity (EC50 range)
Summary of the method: as §2

| SMILES | EC50 (WT/R232 STING protein) [µM] | EC50 (hSTING(H232)) [µM] | EC50 (hSTING(HAQ)) [µM] | EC50 (IRF pathway; Homo sapiens, THP1-Dual) [µM] | EC50 (NF-κB pathway; Homo sapiens, THP1-Dual) [µM] | EC50 (IRF pathway) [µM] | EC50 (NF-κB pathway) [µM] |
| --- | --- | --- | --- | --- | --- | --- | --- |
| Cc1ccc(CNC(=O)c2cnc3c(c2)N(Cc2c(F)cccc2Cl)C(=O)C(C)S3)o1 (centres unmarked) [Example 195, 1-(2-chloro-6-fluorobenzyl)-3-methyl-N-((5-methylfuran-2-yl)methyl)-2-oxo-2,3-dihydro-1H-pyrido[2,3-b][1,4]thiazine-7-carboxamide] | < 1 | 1 to 10 | 1 to 10 | > 10 | 1 to 10 |  |  |
| CC1Sc2ncc(C(=O)NCc3c(F)cc(F)cc3F)cc2N(Cc2c(F)cccc2Cl)C1=O (centres unmarked) [Example 196, 1-(2-chloro-6 fluorobenzyl) 3-methyl-2-oxo-N-(2,4,6-trifluorobenzyl)-2,3-dihydro-1H-pyrido[2,3-b][1,4]thiazine-7-carboxamide] | < 1 | < 1 | < 1 | 1 to 10 | 1 to 10 |  |  |
| O=C(NCc1cc2ccccc2o1)c1cnc2c(c1)N(Cc1c(F)cccc1Cl)C(=O)CS2 [Example 197, N-(benzofuran-2-ylmethyl)-1-(2-chloro-6-fluorobenzyl)-2-oxo-2,3-dihydro-1H-pyrido[2,3-b][1,4]thiazine-7-carboxamide] | 1 to 10 | 1 to 10 | 1 to 10 | > 10 | > 10 |  |  |
| Cc1ccc(CNC(=O)c2ccc3c(n2)N(Cc2cc(F)cc(F)c2)C(=O)C(C)S3)o1 (centres unmarked) [Example 198, 4-(3,5-difluorobenzyl)-2-methyl-N-((5-methylfuran-2-yl)methyl)-3-oxo-3,4-dihydro-2H-pyrido[3,2-b][1,4]thiazine-6-carboxamide] | < 1 | < 1 | < 1 |  |  | 1 to 10 | 1 to 10 |
| CC1Sc2ncc(C(=O)NCc3cc4ccccc4o3)cc2N(Cc2c(F)cccc2Cl)C1=O (centres unmarked) [Example 199, N-(benzofuran-2-ylmethyl)-1-(2-chloro-6-fluorobenzyl)-3-methyl-2-oxo-2,3-dihydro-1H-pyrido[2,3-b][1,4]thiazine-7-carboxamide] | < 1 | < 1 | < 1 | 1 to 10 | 1 to 10 |  |  |
| O=C(NCc1c(F)cc(F)cc1F)c1cnc2c(c1)N(Cc1cc(F)cc(F)c1)C(=O)CS2 [Example 200, 1-(3,5-difluorobenzyl)-2-oxo-N-(2,4,6-trifluorobenzyl)-2,3-dihydro-1H-pyrido[2,3-b] [1,4]thiazine-7-carboxamide] | < 1 | 1 to 10 | 1 to 10 | > 10 | > 10 |  |  |
| CC1Sc2ncc(C(=O)NCc3ccccc3)cc2N(Cc2c(F)cccc2Cl)C1=O (centres unmarked) [Example 201, N-benzyl-1-(2-chloro-6-fluorobenzyl)-3-methyl-2-oxo-2,3-dihydro-1H-pyrido[2,3-b][1,4]thiazine-7-carboxamide] | 1 to 10 | 1 to 10 | 1 to 10 | > 10 | > 10 |  |  |
| Cc1ccc(CNC(=O)c2ccc3c(n2)N(Cc2c(F)cccc2Cl)C(=O)C(C)S3)o1 (centres unmarked) [Example 202, 4-(2-chloro-6-fluorobenzyl)-2-methyl-N-((5-methylfuran-2-yl)methyl)-3-oxo-3,4-dihydro-2H-pyrido[3,2-b] [1,4]thiazine-6-carboxamide] | 1 to 10 | 1 to 10 | 1 to 10 | > 10 | > 10 |  |  |
| Cc1ccc(CNC(=O)c2ccc3c(n2)N(Cc2cc(F)cc(F)c2)C(=O)C(C)S3)o1 (centres unmarked) [Example 203, 4-(3,5-difluorobenzyl)-2-methyl-N-((5-methylfuran-2-yl)methyl)-3-oxo-3,4-dihydro-2H-pyrido[3,2-b][1,4]thiazine-6-carboxamide] | 1 to 10 | 1 to 10 | 1 to 10 |  |  | > 10 | > 10 |
| CC1(C)Sc2ccc(C(=O)NCc3c(F)cc(F)cc3F)cc2N(Cc2ccccc2F)C1=O [Example 218, 4-(2-fluorobenzyl)-2,2-dimethyl-3-oxo-N-(2,4,6-trifluorobenzyl)-3,4-dihydro-2H-benzo[b][1,4] thiazine-6-carboxamide] | < 1 | 1 to 10 | 1 to 10 | 1 to 10 | 1 to 10 |  |  |
